Assay results: ChEMBL document CHEMBL1817662, “Swerilactones L-O, secoiridoids with C₁₂ and C₁₃ skeletons from Swertia mileensis” (J Nat Prod, 2011)
Each block holds one compound with its values, some of them ahead of it.

What was measured:
[1] = Selectivity index, ratio of CC50 for human HepG2(2.2.15) cells to IC50 for HBeAg antigen secretion in HBV infected in human HepG2(2.2.15) cells; format: functional
[2] = Cytotoxicity in human HepG2(2.2.15) cells after 72 hrs by MTT assay; format: cell-based
[3] = Selectivity index, ratio of CC50 for human HepG2(2.2.15) cells to IC50 for HBsAg antigen secretion in HBV infected in human HepG2(2.2.15) cells; format: functional
Hepatitis B virus [4] = experiment: Antiviral activity against HBV infected in human HepG2(2.2.15) cells assessed as reduction in HBeAg antigen secretion after 72 hrs by ELISA; format: functional, organism-based; conditions: HepG2 2.2.15, 72 h
Hepatitis B virus [5] = experiment: Antiviral activity against HBV infected in human HepG2(2.2.15) cells assessed as reduction in HBsAg antigen secretion after 72 hrs by ELISA; format: functional, organism-based; conditions: HepG2 2.2.15, 72 h

IC50 (Hepatitis B virus [4]): > 0.51 mM
IC50 (Hepatitis B virus [5]): > 0.51 mM
Compound: CC(=O)C[C@H](O)c1cccc2c1CCOC2=O [Swerilactone N]
CC50 at 72 h [2]: > 0.51 mM

IC50 (Hepatitis B virus [4]): > 1.44 mM
IC50 (Hepatitis B virus [5]): > 1.44 mM
Compound: CC(=O)/C=C/c1cccc2c1CCOC2=O [Swerilactone O]
CC50 at 72 h [2]: > 1.44 mM

Second part, the compound before the results:

Compound: Nc1ccn([C@@H]2CS[C@H](CO)O2)c(=O)n1 [LAMIVUDINE]
Ratio CC50/IC50 [1]: 1.1
CC50 at 72 h [2]: 33.2 mM

Compound: CC(=O)C[C@@H]1O[C@@H](C)C(=O)C2=C1C(=O)OCC2 [Swerilactone L]
Ratio CC50/IC50 [1]: 1.62
Ratio CC50/IC50 [3]: <1
CC50 at 72 h [2]: 1.43 mM
IC50 (Hepatitis B virus [4]): 0.88 mM
IC50 (Hepatitis B virus [5]): 1.47 mM

Compound: CC(=O)c1cc2c(c([C@H](C)O)c1)CCOC2=O [Swerilactone M]
Ratio CC50/IC50 [1]: <1
Ratio CC50/IC50 [3]: 1.53
CC50 at 72 h [2]: 1.84 mM
IC50 (Hepatitis B virus [4]): > 2.69 mM
IC50 (Hepatitis B virus [5]): 1.2 mM
